The results in this text go back to ChEMBL document CHEMBL3351622, “Synthesis and evaluation of 9-deoxy analogues of (-)-thysanone, an inhibitor of HRV 3C protease” (Eur J Med Chem, 2014).

Molecules are shown by their SMILES.

Broadly, the IC50 is the concentration that inhibits the measured activity by half. Low readings indicate greater potency, high ones weaker potency.

A short description of test [1]: Inhibition of human rhinovirus 3C protease incubated for 1 hr by solid phase fluorescent assay. Details: species or system Human rhinovirus sp.
A short description of test [2]: Inhibition of human rhinovirus 3C protease. Set-up: species or system Human rhinovirus sp.

As to `C[C@H]1CC2=C(C(=O)c3c(O)cc(O)cc3C2=O)[C@H](O)O1`, the IC50 in test [1] stood at 51.8 µM; in test [2], 47 µM.
`C[C@H]1CC2=C(C(=O)c3ccc(O)cc3C2=O)[C@H](O)O1` (racemic) registered an IC50 in test [1] of 20.3 µM.
Take `C[C@H]1CC2=C(CO1)C(=O)c1ccc(O)cc1C2=O` (racemic): inhibition in test [1] was half-maximal at 30.9 µM (IC50).
`CC(C)Oc1ccc2c(c1)C(=O)C1=C(CO[C@@H](C)C1)C2=O` (racemic) yielded an IC50 in test [1] of 35.7 µM.
